Test results reported in patent publication US8497278B2, “Imidazo[1,2-a]pyridine compounds” (priority 2008, dated 2013).

Columns and labels:
[1] = target: T1, α3 subtype containing GABA-A receptors (Homo sapiens, UniProt P18507+P34903); assay: Two-electrode voltage clamp electrophysiology in Xenopus oocytes, potentiation of GABA EC20 response, α3; format: cell-based; conditions: 100 nM compound; for activation at 0.1 µM: read-out: Percentage of potentiation alpha3
T1 construct: expressed in transfected cells; host or cells: Xenopus laevis oocytes, cRNA injected
Protocol: (§1) Electrophysiology protocol: Oocytes were prepared from adult female Xenopus laevis frogs. cRNA encoding human α1, α2, α3, α5, β3 and γ2L GABAA receptor subunits was injected into the cytoplasm of stage 5 or 6 oocytes using the Robocyte Robot (Multi Channel Systems, Reutlingen, Germany). Two-electrode voltage clamp recordings were made in 96-well plates using the Robocyte Robot. Oocytes were impaled using recording heads with two glass electrodes containing 1.5 M potassium acetate and 0.5 M KCl and held at a membrane potential of −80 mV. Oocytes were continually perfused with a ND96 solution (96 mM NaCl, 2 mM KCl, 0.1 mM CaCl2, and 5 mM HEPES, pH 7.5) using a Gilson 222 XL Liquid Handler and Gilson Minipuls 3 Peristaltic Pump (Gilson Medical Electronics, Middleton, Wis., USA). The protocol consisted of three 20-s applications of GABA that gave a 20% of the maximum response (EC20: 60 μM) to allow for headroom to determine a baseline GABA response. To assess the potentiation, oocytes were first exposed to a single 1 μM chlordiazepoxide (CDP) as a potentiation standard. Oocytes with insufficient expression levels (currents below threshold) or insufficient γ2L subunit incorporation (judged by rapid desensitization upon GABA application, or by insufficient potentiation by CDP) were not included in analysis. Following this control application, a given oocyte was exposed to test compounds at 100 nM concentrations. Only one concentration of one compound was tested per oocyte. […] One skilled in the art will recognize that subtypes contribute to the effects of GABA-A modulators. Such that compounds favoring different subtypes can have different therapeutic effects. The magnitude of modulation, for example, partial modulators can influence the effects in vivo. “++” indicates a greater modulation that “+” so that at any given subtype “++” inducates a greater amount of modulation for that subtype. In some embodiments, modulation favoring alpha 1 relative to alpha2 and/or alpha 3 can have sedative hypnotic effects. In other embodiments, compounds with reduced selectivity of alpha 1 can express anxiolytic effects with less sedation. Compounds with selectivity for alpha 5 can have memory/cognition enhancing effects.

[2] = target: T2, α2 subtype containing GABA-A receptors (Homo sapiens, UniProt P18507+P47869); assay: Two-electrode voltage clamp electrophysiology in Xenopus oocytes, potentiation of GABA EC20 response, α2; format: cell-based; conditions: 100 nM compound; for activation at 0.1 µM: read-out: Percentage of potentiation alpha2
T2 construct: expressed in transfected cells; host or cells: Xenopus laevis oocytes, cRNA injected
Outline: (§2)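 Compounds are tested at 100 nM, one per oocyte, against an EC20 GABA (60 μM) response in human α1-, α2-, α3- or α5-β3-γ2L receptors clamped at −80 mV. Oocytes showing rapid desensitization or weak chlordiazepoxide (1 μM) potentiation are excluded.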

[3] = target: T3, α5 subtype containing GABA-A receptors (Homo sapiens, UniProt P18507+P31644); assay: Two-electrode voltage clamp electrophysiology in Xenopus oocytes, potentiation of GABA EC20 response, α5; format: cell-based; conditions: 100 nM compound; for activation at 0.1 µM: read-out: Percentage of potentiation alpha5
T3 construct: expressed in transfected cells; host or cells: Xenopus laevis oocytes, cRNA injected
Protocol: as §1

[4] = target: T4, α1 subtype containing GABA-A receptors (Homo sapiens, UniProt P14867+P18507); assay: Two-electrode voltage clamp electrophysiology in Xenopus oocytes, potentiation of GABA EC20 response, α1; format: cell-based; conditions: 100 nM compound; for activation at 0.1 µM: read-out: Percentage of potentiation alpha1
T4 construct: expressed in transfected cells; host or cells: Xenopus laevis oocytes, cRNA injected
Outline: as §2

[5] = tested on: central benzodiazepine receptors; assay: Central benzodiazepine receptor binding (test of Speth et al.); conditions: 1000 nM of the compound
Outline: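 Radioligand binding by the Speth et al. method. Specific binding is total minus nonspecific binding, the latter measured with excess unlabelled ligand. Compounds screened at 1.0E-09, 1.0E-07 and 1.0E-05 M in single determination; values given as percent inhibition at 1000 nM compound.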

T1 sequence (P34903 29-492): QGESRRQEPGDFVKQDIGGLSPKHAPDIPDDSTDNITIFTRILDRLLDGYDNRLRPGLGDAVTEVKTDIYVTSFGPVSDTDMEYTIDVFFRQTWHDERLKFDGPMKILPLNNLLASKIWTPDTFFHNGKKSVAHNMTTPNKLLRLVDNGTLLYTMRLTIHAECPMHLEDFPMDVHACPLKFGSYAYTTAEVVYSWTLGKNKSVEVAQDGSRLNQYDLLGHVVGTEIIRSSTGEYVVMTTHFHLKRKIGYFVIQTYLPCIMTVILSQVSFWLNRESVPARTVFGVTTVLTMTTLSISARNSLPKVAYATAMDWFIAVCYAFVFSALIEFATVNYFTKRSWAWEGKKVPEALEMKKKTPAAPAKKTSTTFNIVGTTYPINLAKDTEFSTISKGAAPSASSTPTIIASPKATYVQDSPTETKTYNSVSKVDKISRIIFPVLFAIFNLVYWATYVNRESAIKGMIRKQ
T1 sequence (P28472 26-473 partner): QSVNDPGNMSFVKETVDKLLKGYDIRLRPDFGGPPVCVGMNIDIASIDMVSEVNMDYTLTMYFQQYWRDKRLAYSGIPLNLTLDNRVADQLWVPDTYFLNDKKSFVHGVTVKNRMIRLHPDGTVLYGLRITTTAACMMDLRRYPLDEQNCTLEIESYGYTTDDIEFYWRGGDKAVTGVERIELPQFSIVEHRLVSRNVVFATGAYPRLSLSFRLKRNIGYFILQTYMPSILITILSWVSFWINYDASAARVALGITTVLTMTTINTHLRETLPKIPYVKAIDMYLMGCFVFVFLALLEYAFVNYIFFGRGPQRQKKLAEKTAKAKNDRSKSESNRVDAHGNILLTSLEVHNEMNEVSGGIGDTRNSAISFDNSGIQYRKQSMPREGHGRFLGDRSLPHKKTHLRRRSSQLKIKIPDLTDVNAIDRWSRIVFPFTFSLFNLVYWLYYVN
T1 sequence (P18507 40-475): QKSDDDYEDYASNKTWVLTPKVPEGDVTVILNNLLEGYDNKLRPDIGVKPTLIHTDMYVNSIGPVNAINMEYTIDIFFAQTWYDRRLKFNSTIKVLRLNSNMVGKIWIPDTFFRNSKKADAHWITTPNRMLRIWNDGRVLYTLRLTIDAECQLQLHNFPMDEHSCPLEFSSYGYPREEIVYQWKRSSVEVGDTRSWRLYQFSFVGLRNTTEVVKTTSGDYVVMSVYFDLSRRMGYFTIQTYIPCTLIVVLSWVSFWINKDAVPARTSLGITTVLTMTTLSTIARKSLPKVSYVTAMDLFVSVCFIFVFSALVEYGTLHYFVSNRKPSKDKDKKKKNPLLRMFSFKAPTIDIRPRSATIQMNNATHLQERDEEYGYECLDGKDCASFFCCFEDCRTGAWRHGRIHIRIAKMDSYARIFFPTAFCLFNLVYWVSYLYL
T2 sequence (P47869 29-451): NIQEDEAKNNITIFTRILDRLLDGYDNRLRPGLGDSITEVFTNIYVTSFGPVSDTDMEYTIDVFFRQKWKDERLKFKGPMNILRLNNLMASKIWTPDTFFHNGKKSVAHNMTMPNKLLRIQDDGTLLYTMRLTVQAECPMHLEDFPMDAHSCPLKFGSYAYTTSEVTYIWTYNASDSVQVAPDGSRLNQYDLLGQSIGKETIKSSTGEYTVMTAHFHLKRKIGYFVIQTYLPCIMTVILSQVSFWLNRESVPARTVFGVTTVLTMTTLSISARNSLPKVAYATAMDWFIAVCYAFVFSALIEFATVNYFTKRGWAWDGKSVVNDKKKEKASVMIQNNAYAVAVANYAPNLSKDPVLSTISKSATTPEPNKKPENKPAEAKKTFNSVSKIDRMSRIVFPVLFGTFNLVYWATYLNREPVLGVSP
T2 sequence (P28472 26-473 partner): as the sequence (P28472 26-473 partner) above
T2 sequence (P18507 40-475): as the sequence (P18507 40-475) above
T3 sequence (P31644 32-462): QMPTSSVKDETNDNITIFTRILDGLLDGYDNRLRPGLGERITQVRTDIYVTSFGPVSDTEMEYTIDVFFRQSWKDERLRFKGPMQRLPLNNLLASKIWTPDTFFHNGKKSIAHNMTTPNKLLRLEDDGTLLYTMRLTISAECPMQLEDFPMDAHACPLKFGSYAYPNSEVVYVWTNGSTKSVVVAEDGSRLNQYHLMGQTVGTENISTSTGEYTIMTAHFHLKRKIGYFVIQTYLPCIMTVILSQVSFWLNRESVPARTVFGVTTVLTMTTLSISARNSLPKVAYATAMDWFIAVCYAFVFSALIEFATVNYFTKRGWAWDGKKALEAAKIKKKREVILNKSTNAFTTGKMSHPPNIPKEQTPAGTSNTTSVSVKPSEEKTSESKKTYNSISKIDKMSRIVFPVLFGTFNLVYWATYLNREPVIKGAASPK
T3 sequence (P28472 26-473 partner): as the sequence (P28472 26-473 partner) above
T3 sequence (P18507 40-475): as the sequence (P18507 40-475) above
T4 sequence (P14867 28-456): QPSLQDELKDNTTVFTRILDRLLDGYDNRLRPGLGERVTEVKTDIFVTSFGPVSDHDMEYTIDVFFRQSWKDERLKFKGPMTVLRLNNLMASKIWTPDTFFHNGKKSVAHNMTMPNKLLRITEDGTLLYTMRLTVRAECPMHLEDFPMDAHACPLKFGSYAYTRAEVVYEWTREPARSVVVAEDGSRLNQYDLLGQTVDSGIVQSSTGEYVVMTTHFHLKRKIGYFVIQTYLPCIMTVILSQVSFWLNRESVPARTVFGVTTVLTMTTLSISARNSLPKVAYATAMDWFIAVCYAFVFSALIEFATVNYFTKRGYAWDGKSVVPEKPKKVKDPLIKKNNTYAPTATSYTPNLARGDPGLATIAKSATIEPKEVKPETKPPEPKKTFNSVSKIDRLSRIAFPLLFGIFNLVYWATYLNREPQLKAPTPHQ
T4 sequence (P28472 26-473 partner): as the sequence (P28472 26-473 partner) above
T4 sequence (P18507 40-475): as the sequence (P18507 40-475) above

With `O=c1cc(Cl)n(Cc2c(-c3ccc(Cl)cc3)nc3ccccn23)c(=O)[nH]1` [Compound 128, 6-chloro-1-((2-(4-chlorophenyl)imidazo[1,2-a]pyridin-3-yl)methyl)pyrimidine-2,4(1H,3H)-dione] the activation at 0.1 µM [1] was -10 to 10%, the activation at 0.1 µM [2] was 10 to 50% and the activation at 0.1 µM [3] was 10 to 50%. For the same compound, the activation at 0.1 µM [4] was -10 to 10% and the “% Inhibition at 1000 nM for CBZD” value [5] was “++ (percentage of inhibition of central BZD site binding is greater than 80% in the presence of 1000 nM of the compound)”.

In the case of `Cc1ccc(-c2nc3ccc(C)cn3c2Cn2cnc3ncccc32)cc1` [Compound 15, 1-((6-Methyl-2-p-tolylH-imidazo[1,2-a]pyridin-3-yl)methyl)-1H-imidazo[4,5-b]pyridine], the “Percentage of potentiation alpha3” value [1] is reported as “+ (percentage of potentiation is greater than or equal to 10% but less than 50% in the presence of 100 nM of the compound)”, the “Percentage of potentiation alpha2” value [2] is reported as “+ (percentage of potentiation is greater than or equal to 10% but less than 50% in the presence of 100 nM of the compound)” and the “Percentage of potentiation alpha5” value [3] is reported as 0 (percentage of potentiation is between about 10% to about −10%). The “Percentage of potentiation alpha1” value [4] was “+ (percentage of potentiation is greater than or equal to 10% but less than 50% in the presence of 100 nM of the compound)” and the “% Inhibition at 1000 nM for CBZD” value [5] was “++ (percentage of inhibition of central BZD site binding is greater than 80% in the presence of 1000 nM of the compound)”.

With `Cc1ccc(-c2nc3ccc(C)cn3c2Cn2cnc3c(N(C)C)ncnc32)cc1` [Compound 17, N,N-Dimethyl-9-((6-methyl-2-p-tolylH-imidazo[1,2-a]pyridin-3-yl)methyl)-9H-purin-6-amine] the “Percentage of potentiation alpha3” value [1] was 0 (percentage of potentiation is between about 10% to about −10%), the “Percentage of potentiation alpha2” value [2] was “+ (percentage of potentiation is greater than or equal to 10% but less than 50% in the presence of 100 nM of the compound)” and the “Percentage of potentiation alpha5” value [3] was 0 (percentage of potentiation is between about 10% to about −10%). For the same compound, the “Percentage of potentiation alpha1” value [4] was “+ (percentage of potentiation is greater than or equal to 10% but less than 50% in the presence of 100 nM of the compound)” and the “% Inhibition at 1000 nM for CBZD” value [5] was “++ (percentage of inhibition of central BZD site binding is greater than 80% in the presence of 1000 nM of the compound)”.

Work on `Cc1nnc(Cc2c(-c3ccccc3)nc3ccc(Cl)cn23)o1` [Compound 205, 2-((6-chloro-2-phenylimidazo[1,2-a]pyridin-3-yl)methyl)-5-methyl-1,3,4-oxadiazole] yielded an activation at 0.1 µM [1] of -10 to 10%, an activation at 0.1 µM [2] of -10 to 10% and an activation at 0.1 µM [3] of -10 to 10%. The activation at 0.1 µM [4] was -10 to 10% and the “% Inhibition at 1000 nM for CBZD” value [5] was “++ (percentage of inhibition of central BZD site binding is greater than 80% in the presence of 1000 nM of the compound)”.

Work on `CC(C)OC(=O)c1ncnn1Cc1c(-c2ccc(Cl)cc2)nc2ccc(Cl)cn12` [Compound 23, 2-[6-Chloro-2-(4-chloro-phenyl)-imidazo[1,2-a]pyridin-3-ylmethyl]-2H-[1,2,4]triazole-3-carboxylic acid isopropyl ester] yielded an activation at 0.1 µM [1] of 10 to 50%, an activation at 0.1 µM [2] of 10 to 50% and an activation at 0.1 µM [3] of -10 to 10%. For the same compound, the activation at 0.1 µM [4] was 10 to 50% and the “% Inhibition at 1000 nM for CBZD” value [5] was “++ (percentage of inhibition of central BZD site binding is greater than 80% in the presence of 1000 nM of the compound)”.

`Fc1ccc2nc(-c3ccc(Cl)cc3)c(Cn3nnc4ccccc43)n2c1` [Compound 58, 1-((2-(4-chlorophenyl)-6-fluoroH-imidazo[1,2-a]pyridin-3-yl)methyl)-1H-benzo[d][1,2,3]triazole] was tested, and the “Percentage of potentiation alpha3” value [1] was 0 (percentage of potentiation is between about 10% to about −10%), the “Percentage of potentiation alpha2” value [2] was “+ (percentage of potentiation is greater than or equal to 10% but less than 50% in the presence of 100 nM of the compound)” and the “Percentage of potentiation alpha5” value [3] was 0 (percentage of potentiation is between about 10% to about −10%). The “Percentage of potentiation alpha1” value [4] was “+ (percentage of potentiation is greater than or equal to 10% but less than 50% in the presence of 100 nM of the compound)” and the “% Inhibition at 1000 nM for CBZD” value [5] was “++ (percentage of inhibition of central BZD site binding is greater than 80% in the presence of 1000 nM of the compound)”.

`Clc1ccc(-c2nc3ccccn3c2Cc2nnc(-c3ccccn3)[nH]2)cc1` [Compound 230, 2-(4-chlorophenyl)-3-((5-(pyridin-2-yl)-4H-1,2,4-triazol-3-yl)methyl)imidazo[1,2-a]pyridine] was tested, and the activation at 0.1 µM [1] was 10 to 50%, the activation at 0.1 µM [2] was 10 to 50% and the activation at 0.1 µM [3] was 10 to 50%. The activation at 0.1 µM [4] was 10 to 50% and the “% Inhibition at 1000 nM for CBZD” value [5] was “++ (percentage of inhibition of central BZD site binding is greater than 80% in the presence of 1000 nM of the compound)”.

For `COC(=O)c1ncnn1Cc1c(-c2ccc(Cl)cc2)nc2ccc(Cl)cn12` [Compound 21, Methyl 2-((6-chloro-2-(4-chlorophenyl)H-imidazo[1,2-a]pyridin-3-yl)methyl)-2H-1,2,4-triazole-3-carboxylate], the “Percentage of potentiation alpha3” value [1] was “+ (percentage of potentiation is greater than or equal to 10% but less than 50% in the presence of 100 nM of the compound)”, the “Percentage of potentiation alpha2” value [2] was “+ (percentage of potentiation is greater than or equal to 10% but less than 50% in the presence of 100 nM of the compound)” and the “Percentage of potentiation alpha5” value [3] was 0 (percentage of potentiation is between about 10% to about −10%). The “Percentage of potentiation alpha1” value [4] was “+ (percentage of potentiation is greater than or equal to 10% but less than 50% in the presence of 100 nM of the compound)” and the “% Inhibition at 1000 nM for CBZD” value [5] was “++ (percentage of inhibition of central BZD site binding is greater than 80% in the presence of 1000 nM of the compound)”.

For `CNc1ccn(Cc2c(-c3ccc(Cl)cc3)nc3ccccn23)c(=O)n1` [Compound 133, 1-((2-(4-chlorophenyl)imidazo[1,2-a]pyridin-3-yl)methyl)-4-(methylamino)pyrimidin-2(1H)-one], the activation at 0.1 µM [1] was -10 to 10%, the activation at 0.1 µM [2] was no less than 50% and the activation at 0.1 µM [3] was -10 to 10%. The activation at 0.1 µM [4] was 10 to 50% and the “% Inhibition at 1000 nM for CBZD” value [5] was “++ (percentage of inhibition of central BZD site binding is greater than 80% in the presence of 1000 nM of the compound)”.

With `Cc1ccc(-c2nc3ccc(C)cn3c2CNc2ncccn2)cc1` [Compound 139, N-((6-methyl-2-p-tolylH-imidazo[1,2-a]pyridin-3-yl)methyl)pyrimidin-2-amine] the activation at 0.1 µM [1] was -10 to 10%, the activation at 0.1 µM [2] was 10 to 50% and the activation at 0.1 µM [3] was -10 to 10%. For the same compound, the activation at 0.1 µM [4] was 10 to 50% and the “% Inhibition at 1000 nM for CBZD” value [5] was “++ (percentage of inhibition of central BZD site binding is greater than 80% in the presence of 1000 nM of the compound)”.

In the case of `Clc1ccc(-c2nc3ccccn3c2Cn2nccn2)cc1` [Compound 39, 2-(4-Chloro-phenyl)-3-[1,2,3]triazol-2-ylmethyl-imidazo[1,2-a]pyridine], the activation at 0.1 µM [1] is reported as 10 to 50%, the activation at 0.1 µM [2] is reported as 10 to 50% and the activation at 0.1 µM [3] is reported as -10 to 10%. The activation at 0.1 µM [4] was 10 to 50% and the “% Inhibition at 1000 nM for CBZD” value [5] was “++ (percentage of inhibition of central BZD site binding is greater than 80% in the presence of 1000 nM of the compound)”.

Compound `O=c1n(Cc2c(-c3ccc(Cl)cc3)nc3ccccn23)nc2ccccn12` [Compound 119, 2-((2-(4-chlorophenyl)imidazo[1,2-a]pyridin-3-yl)methyl)-[1,2,4]triazolo[4,3-a]pyridin-3(2H)-one] has an activation at 0.1 µM [1] of -10 to 10%, an activation at 0.1 µM [2] of 10 to 50% and an activation at 0.1 µM [3] of -10 to 10%. For the same compound, the activation at 0.1 µM [4] was -10 to 10% and the “% Inhibition at 1000 nM for CBZD” value [5] was “++ (percentage of inhibition of central BZD site binding is greater than 80% in the presence of 1000 nM of the compound)”.

For `Cc1ccnc(NCc2c(-c3ccccc3)nc3ccc(Cl)cn23)n1` [Compound 158, (6-Chloro-2-phenyl-imidazo[1,2-a]pyridin-3-ylmethyl)-(4-methyl-pyrimidin-2-yl)-amine], the activation at 0.1 µM [1] was 10 to 50%, the activation at 0.1 µM [2] was 10 to 50% and the activation at 0.1 µM [3] was -10 to 10%. For the same compound, the activation at 0.1 µM [4] was -10 to 10% and the “% Inhibition at 1000 nM for CBZD” value [5] was “++ (percentage of inhibition of central BZD site binding is greater than 80% in the presence of 1000 nM of the compound)”.
